Legend:
[1] = test system: IFN-γ release by PBMC upon restimulation with antigen; experiment: IFN-γ release by lymphocytes of mice immunised with Ag85B-ESAT-6 in adjuvant; assay type: in vivo, C57BL/6 mice; conditions: for immune response (IFN-γ release by PBMC) in the blood one week after the last vaccination: Ag85B-ESAT-6 in DDA, 10 μg MMG or analogue
[2] = test system: human peripheral blood monocyte-derived immature DC (iDC); assay type: cell-based; conditions: 24 h, 10 μg/ml lipid, ELISA, Tukey test
[3] = test system: human peripheral blood monocyte-derived immature DC (iDC); experiment: Activation of human immature dendritic cells, surface markers by flow cytometry; assay type: cell-based; conditions: 24 h, 10 μg/ml lipid; for mean fold increase in CD86 levels above levels associated with untreated iDC: six individual donors
[4] = 10 μg lipid in 250 μg DDA liposomes with 2 μg Ag85B-ESAT-6, s.c.

Compound	immune response (IFN-γ release by PBMC) in the blood one week after the last vaccination [1]	IL-6 release by DC [2]	IFN-γ levels upon restimulation of PBMC isolated from the draining lymph node [1, 4] [ng/mL]	DC activation, upregulation of CD86, CD40 and HLA-DR (rank among purified apolar lipids) [3]	mean fold increase in CD86 levels above levels associated with untreated iDC [3] [fold]	IFN-γ production, draining lymph node (in words) [1, 4]
CCCCCCCCCCCCCCCCCC[N+](C)(C)CCCCCCCCCCCCCCCCCC.[Br-] [DDA, dimethyldioctadecylammonium]	lower effect					
CCCCCCCC(O)C(CCCCCC)C(=O)OCC(O)CO (centres unmarked) [synthetic MMG analogue with 16 carbons, 3-hydroxy-2-hexyl-decanoic acid-2,3-dihydroxypropyl ester]	comparable levels of responses					
CCCCCCCCCCCCCCCCCC(O)C(CCCCCCCCCCCCCCCC)C(=O)OCC(O)CO (centres unmarked) [synthetic MMG analogue with 36 carbons, 3-hydroxy-2-hexadecylicosanoic acid-2,3-dihydroxypropyl ester]	comparable levels of responses					
monomycolyl glycerol [MMG]	comparable levels of responses	significantly greater levels	10	most potent inducer of DC activation	1.91±0.29	
phenolic glycolipid [PGL]				induced less activation	1.52±0.26	very little IFN-γ release
phthiocerol dimycocerosate A [PDIM A]				second most active lipid	1.82±0.43	albeit to a lower level
triacyl glycerols [TAGs]				induced less activation	1.32±0.14	very little IFN-γ release
